Measured values published in patent US5112754A, “Tissue plasminogen-activating factor and nonoclonal antibody” (Snow Brand Milk Products Co., Ltd., priority 1985, dated 1992).
“And” between values parts separate entries of the source, which are not always exact repeats. Identical values can stand only once. Where a SMILES comes first, the peptide text is derived from it. [ ]: non-standard residue; d: D form. The star is where a group is joined. pNA = O=[N+]([O-])c1ccc(N*)cc1

Columns and labels:
Format in all cases: biochemical
[1] = target: Urokinase (high-molecular type) (Homo sapiens, UniProt P00749); assay: Km for synthetic substrate S-2288, urokinase high-molecular type; settings: for comparison
[2] = target: T1, New type of plasminogen activator (non-urokinase tissue type, IMR-90 t-PA) produced by fibroblasts derived from human fetal lung tissue (Homo sapiens, UniProt P00750); assay: Km and Vmax for synthetic substrate S-2288, new type of plasminogen activator
T1 construct: Normal fibroblasts of strain IMR-90 (ATCC, CCL-186) derived from human fetal lung tissue were cultured in a serum-free medium; endogenous in cells; host or cells: IMR-90 (ATCC CCL-186) normal human fetal lung fibroblasts; protein purified from the serum-free culture medium

[3] = target: Urokinase (low-molecular type) (Homo sapiens, UniProt P00749); assay: Vmax for synthetic substrate S-2288, urokinase low-molecular type; settings: for comparison

T1 sequence (P00750 36-562): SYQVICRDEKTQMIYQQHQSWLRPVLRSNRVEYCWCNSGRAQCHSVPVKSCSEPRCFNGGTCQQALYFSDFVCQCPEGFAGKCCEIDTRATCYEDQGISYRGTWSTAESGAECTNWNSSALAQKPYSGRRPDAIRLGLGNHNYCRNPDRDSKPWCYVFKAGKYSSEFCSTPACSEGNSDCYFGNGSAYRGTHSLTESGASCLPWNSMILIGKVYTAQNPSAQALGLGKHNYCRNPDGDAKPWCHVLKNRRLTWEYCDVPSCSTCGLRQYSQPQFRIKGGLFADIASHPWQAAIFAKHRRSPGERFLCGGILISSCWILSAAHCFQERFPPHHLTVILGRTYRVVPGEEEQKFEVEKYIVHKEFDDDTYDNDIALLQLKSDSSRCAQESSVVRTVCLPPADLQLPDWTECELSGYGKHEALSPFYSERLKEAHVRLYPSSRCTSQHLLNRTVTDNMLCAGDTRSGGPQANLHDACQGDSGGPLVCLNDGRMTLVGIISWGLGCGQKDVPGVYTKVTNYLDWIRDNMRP

Km [1]: 500 µM
Km ([2]; purified new type of plasminogen activator): 1.16 mM and ~1.16 mM
Vmax for substrate S-2288 ([2]; purified new type of plasminogen activator, Table 1): 1.7 × 10^-8 mol/min-unit
Vmax for substrate S-2288 ([2]; purified plasminogen activator, unit as printed in running text b36): about 1.7×10^-8 mol/liter
Vmax for substrate S-2288 [3]: 5 × 10^-10 mol/min-unit
SMILES: CC[C@@H](C)[C@@H](N)C(=O)N1CCC[C@H]1C(=O)N[C@@H](CCCNC(=N)N)C(=O)Nc1ccc([N+](=O)[O-])cc1 [S-2288, H.D.Ile-Pro-Arg-pNa.2HCl] (H-[dI]-Pro-Arg-pNA)
